Measurements as given in ChEMBL document CHEMBL3588836, “Development of Quinoline-2,4(1H,3H)-diones as Potent and Selective Ligands of the Cannabinoid Type 2 Receptor” (J Med Chem, 2015).
Active and inactive are the calls of the source. The rule behind the calls is not given here.

Legend:
Cannabinoid receptor 2 [1] = biological target: T1, Cannabinoid receptor 2 (Homo sapiens, UniProt P34972); assay: Antagonist activity against CB2R (unknown origin) CHO cells stably expressing Galpha16 assessed as inhibition of CP55940-induced increase in intracellular calcium level pre-treated 10 mins before CP55940 stimulation by microplate reader based assay relative to […]; type: functional, cell-based
CHO [2] = assay: Selectivity index, ratio of IC50 for CB1R (unknown origin) CHO cells stably expressing Galpha16 to IC50 for CB2R (unknown origin) CHO cells stably expressing Galpha16; type: cell-based; details: Homo sapiens
Cannabinoid receptor 2 [3] = biological target: T1, Cannabinoid receptor 2; assay: Antagonist activity against CB2R (unknown origin) CHO cells stably expressing Galpha16 assessed as inhibition of CP55940-induced increase in intracellular calcium level pre-treated 10 mins before CP55940 stimulation by microplate reader based assay; type: functional, cell-based
Cannabinoid receptor 1 [4] = biological target: T2, Cannabinoid receptor 1 (Homo sapiens, UniProt P21554); type: functional, cell-based, CHO
Mus musculus [5] = assay: Reduction in experimental autoimmune encephalomyelitis clinical scores in C57BL/6 mouse experimental autoimmune encephalomyelitis model of multiple sclerosis at 10 mg/kg, po administered once daily starting from day 3 after immunization until end of experiment and measured on day 21 after immunization; type: functional, organism-based
Mus musculus [6] = assay: Reduction in extensive demyelination in white matter of C57BL/6 mouse experimental autoimmune encephalomyelitis model of multiple sclerosis at 10 mg/kg, po administered once daily starting from day 3 after immunization until end of experiment and measured on day 21 after immunization by Luxol fast blue staining; type: functional, organism-based
Cannabinoid receptor 2 [7] = biological target: T1, Cannabinoid receptor 2; assay: Agonist activity at CB2R (unknown origin) CHO cells stably expressing Galpha16 assessed as increase in intracellular calcium level by microplate reader based assay relative to CP55940; type: functional, cell-based
Mus musculus [8] = assay: Reduction in leukocyte infiltration in spinal cord of C57BL/6 mouse experimental autoimmune encephalomyelitis model of multiple sclerosis at 10 mg/kg, po administered once daily starting from day 3 after immunization until end of experiment and measured on day 21 after immunization by hematoxylin and eosin staining; type: functional, organism-based
Cannabinoid receptor 1 [9] = biological target: T2, Cannabinoid receptor 1; assay: Agonist activity at CB1R (unknown origin) CHO cells stably expressing Galpha16 assessed as increase in intracellular calcium level by microplate reader based assay; type: functional, cell-based
Cannabinoid receptor 2 [10] = biological target: T1, Cannabinoid receptor 2; assay: Agonist activity at CB2R (unknown origin) CHO cells stably expressing Galpha16 assessed as increase in intracellular calcium level by microplate reader based assay; type: functional, cell-based; details: read-out: EC50
CHO [11] = assay: Selectivity index, ratio of EC50 for CB1R (unknown origin) CHO cells stably expressing Galpha16 to EC50 for CB2R (unknown origin) CHO cells stably expressing Galpha16; type: cell-based; details: Homo sapiens

T2 sequence (P21554 whole entry): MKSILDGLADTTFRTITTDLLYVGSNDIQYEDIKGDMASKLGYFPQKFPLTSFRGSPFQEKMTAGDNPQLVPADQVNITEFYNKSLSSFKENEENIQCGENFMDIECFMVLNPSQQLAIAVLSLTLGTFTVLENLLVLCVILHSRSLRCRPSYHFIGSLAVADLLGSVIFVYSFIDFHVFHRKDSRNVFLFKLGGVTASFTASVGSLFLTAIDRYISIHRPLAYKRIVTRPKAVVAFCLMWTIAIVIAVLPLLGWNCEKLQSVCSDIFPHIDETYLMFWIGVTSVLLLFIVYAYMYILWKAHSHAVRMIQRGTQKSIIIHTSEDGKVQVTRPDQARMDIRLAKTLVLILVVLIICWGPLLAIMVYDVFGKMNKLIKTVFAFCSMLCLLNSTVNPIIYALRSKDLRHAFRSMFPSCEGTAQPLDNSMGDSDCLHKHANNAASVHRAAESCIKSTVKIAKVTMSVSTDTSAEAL
T1 sequence (P34972 whole entry): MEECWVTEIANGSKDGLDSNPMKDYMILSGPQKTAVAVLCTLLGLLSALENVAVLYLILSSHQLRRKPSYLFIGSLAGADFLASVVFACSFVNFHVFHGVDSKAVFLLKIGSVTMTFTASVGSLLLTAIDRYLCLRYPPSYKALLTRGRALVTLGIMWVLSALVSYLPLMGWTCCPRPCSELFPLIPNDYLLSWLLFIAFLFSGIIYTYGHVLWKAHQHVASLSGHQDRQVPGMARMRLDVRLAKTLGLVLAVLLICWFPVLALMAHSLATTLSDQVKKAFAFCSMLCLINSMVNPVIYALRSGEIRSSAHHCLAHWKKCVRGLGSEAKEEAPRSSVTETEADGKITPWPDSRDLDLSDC

SMILES | Emax (Cannabinoid receptor 2 [1]) [%] | Ratio IC50 (CHO [2]) | IC50 (Cannabinoid receptor 2 [3]) [nM] | IC50 (Cannabinoid receptor 1 [4]) [nM] | inhibition (Mus musculus [5]) | inhibition (Mus musculus [6]) | Emax (Cannabinoid receptor 2 [7]) [%] | inhibition (Mus musculus [8]) | EC50 (Cannabinoid receptor 1 [9]) [nM] | EC50 (Cannabinoid receptor 2 [10]) [nM] | Ratio EC50 (CHO [11])
CCCCCN1C(=O)/C(=C/NC2CCCCC2)C(=O)c2cc(Cl)cc(C)c21 | 95 | > 6.76 | 1480 | > 10000 |  |  |  |  |  |  | 
CCCCCN1C(=O)/C(=C/NC2CCCCC2)C(=O)c2ccc(OC)cc21 | 97.4 | > 51.5 | 194 | > 10000 |  |  |  |  |  |  | 
CCCCCN1C(=O)/C(=C/NC23CC4CC(CC(C4)C2)C3)C(=O)c2cc(Cl)ccc21 | 100 | > 10.4 | 957 | > 10000 |  |  |  |  |  |  | 
Cc1c(C(=O)NN2CCCCC2)nn(-c2ccc(Cl)cc2Cl)c1-c1ccc(Cl)cc1 | 100 |  |  |  |  |  |  |  |  |  | 
CCCCCN1C(=O)/C(=C/NC2CCCCC2)C(=O)c2ccc(C)cc21 | 96.3 | > 1110 | 9.03 | > 10000 |  |  |  |  |  |  | 
CCCCCN1C(=O)/C(=C/NC2CCCCC2)C(=O)c2cc(OC)ccc21 | 98.3 | > 6.06 | 1650 | > 10000 |  |  |  |  |  |  | 
CCCCCN1C(=O)/C(=C/NC23CC4CC(CC(C4)C2)C3)C(=O)c2cc(OC)ccc21 | 106 | > 122 | 81.7 | > 10000 |  |  |  |  |  |  | 
CCCCN1C(=O)/C(=C/NC2CCCCC2)C(=O)c2cccc(C)c21 |  |  |  |  | Dose-dependent effect | Active | 116 | Active | > 10000 | 92.7 | > 108
CCCCCN1C(=O)/C(=C/NC2CCCCC2)C(=O)c2cc(Br)ccc21 | 96.8 | > 5.95 | 1680 | > 10000 |  |  |  |  |  |  | 
CCCCCN1C(=O)/C(=C/NC2CCCCC2)C(=O)c2cc(OC)cc(C)c21 | 106 | > 107 | 93.3 | > 10000 |  |  |  |  |  |  | 
CCCCCN1C(=O)/C(=C/NC23CC4CC(CC(C4)C2)C3)C(=O)c2cc(OC)cc(C)c21 | 102 | > 221 | 45.3 | > 10000 |  |  |  |  |  |  | 
CCCCCN1C(=O)/C(=C/NC2CCCCC2)C(=O)c2cc(Cl)ccc21 | 102 | > 6.62 | 1510 | > 10000 |  |  |  |  |  |  | 
CCCCN1C(=O)/C(=C/NC2CCCCC2)C(=O)c2cc(OC)ccc21 | 99.7 | > 2.39 | 4190 | > 10000 |  |  |  |  |  |  | 
CCCCOc1c(OC)ccc2cc(C(=O)NCCc3ccc(N)cc3)c(=O)[nH]c12 | 102 | > 18.3 |  | > 10000 |  |  |  |  |  |  | 
